Results as given in article PMC9409145, “(-)-Epicatechin Is a Biased Ligand of Apelin Receptor” (International Journal of Molecular Sciences, 2022).

Tests used:
[1] = molecular target: T1, apelin receptor (APLNR; APJ), PathHunter eXpress (Homo sapiens, UniProt P35414); assay: beta-arrestin-2 recruitment, enzyme complementation chemiluminescence, specific binding with Hill slope fit; type: cell-based; details: agonist; apparent constant from functional response, not a radioligand; 1 h incubation; CHO-K1 cells; read-out: Kd
T1 construct: full-length receptor with C-terminal ProLink (beta-galactosidase fragment) tag, stably expressed in CHO-K1 with enzyme-acceptor-tagged beta-arrestin-2
T1 sequence (P35414 1-380): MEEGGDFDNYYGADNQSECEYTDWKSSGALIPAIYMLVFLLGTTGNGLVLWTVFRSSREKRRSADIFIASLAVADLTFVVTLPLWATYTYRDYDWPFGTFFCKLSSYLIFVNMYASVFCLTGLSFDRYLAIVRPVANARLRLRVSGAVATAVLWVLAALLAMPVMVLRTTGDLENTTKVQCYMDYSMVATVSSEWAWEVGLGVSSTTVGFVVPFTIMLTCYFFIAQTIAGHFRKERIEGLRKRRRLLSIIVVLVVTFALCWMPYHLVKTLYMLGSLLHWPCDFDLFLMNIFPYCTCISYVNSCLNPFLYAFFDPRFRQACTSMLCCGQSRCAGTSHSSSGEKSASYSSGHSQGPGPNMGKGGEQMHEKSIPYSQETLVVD
From the text: beta-arrestin-2 recruitment, enzyme complementation chemiluminescence, specific binding with Hill slope fit on apelin receptor (APLNR; APJ), PathHunter eXpress

[2] = molecular target: T2, apelin receptor (mouse skeletal muscle) (Mus musculus, UniProt Q9WV08); assay: affinity chromatography on immobilised epicatechin, MS identification; type: binding; details: muscle homogenate, 4 °C overnight, PBS pH 7.4; acid elution (MES pH 4.5); immobilised ligand
T2 construct: gene Aplnr
T2 sequence (Q9WV08 1-377): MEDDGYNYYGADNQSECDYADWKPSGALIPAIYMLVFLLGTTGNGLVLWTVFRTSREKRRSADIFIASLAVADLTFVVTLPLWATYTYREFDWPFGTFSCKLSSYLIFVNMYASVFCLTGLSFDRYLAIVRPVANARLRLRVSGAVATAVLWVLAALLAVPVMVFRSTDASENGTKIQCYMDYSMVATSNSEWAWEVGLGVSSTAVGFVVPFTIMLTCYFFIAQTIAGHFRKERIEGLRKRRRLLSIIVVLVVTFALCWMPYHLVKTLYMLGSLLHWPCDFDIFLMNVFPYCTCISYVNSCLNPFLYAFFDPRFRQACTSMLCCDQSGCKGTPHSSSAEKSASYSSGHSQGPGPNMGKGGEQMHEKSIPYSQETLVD

[3] = molecular target: T1, apelin receptor (APLNR; APJ), PathHunter eXpress; assay: beta-arrestin-2 recruitment, enzyme complementation chemiluminescence; type: cell-based; details: antagonist; cells pre-incubated with ML221, then EC as agonist

`Oc1cc(O)c2c(c1)O[C@H](c1ccc(O)c(O)c1)[C@H](O)C2` [EC, (-)-epicatechin] was tested. Which EC50 [1] did it give?
Its EC50 is 1.76 pM.

What about the “affinity chromatography on immobilised epicatechin, MS identification” value [2] of the same molecule?
Its value is “Five proteins were identified as receptors: apelin receptor”.

How did the “beta-arrestin-2 recruitment, enzyme complementation chemiluminescence” value [3] turn out when `O=C(Oc1coc(CSc2ncccn2)cc1=O)c1ccc([N+](=O)[O-])cc1` [ML221, 5-[(4-Nitrobenzoyl)oxy]-2-[(2-pyrimidinylthio)methyl]-4H-pyran-4-one] was run?
Its value is “the interaction of the antagonist with the receptor and the blockage of the effect of EC”.
